Laboratory results reported in patent publication US20070010438A1, “Tumor treatment using beta-sheet peptides and radiotherapy” (priority 2005, published 2007).

What was measured:
EC = EC proliferation, 3[H]thymidine incorporation assay (Table 3); type: cell-based, human
Description: EC proliferation was measured using a ^3[H]thymidine incorporation assay. EC were seeded in flatbottomed 96-well tissue culture plates (5000 cells/well) and grown for 3 days, in culture medium. In some cultures the proliferation of EC was enhanced by incubation with 10 ng/ml bFGF. During the last 6 hours of the assay, the culture was pulsed with 0.5 μCi [methyl-3 H]thymidine/well. Results are expressed as the arithmetic mean counts per minute (cpm) of triplicate cultures.

[1] = tested on: intercellular adhesion molecule-1 (ICAM-1); assay: ICAM-1 expression on bFGF-treated EC (flow cytometry, Northern blot); type: cell-based, human; settings: for bFGF mediated downregulation of ICAM-1: 100 μg/ml added simultaneously with 10 ng/ml bFGF, 3 days
Description: In a first series of experiments, PF4 and βpep peptides were tested for their ability to prevent bFGF (fibroblast growth factor) mediated downregulation of ICAM-1. […] Simultaneously 100 μg/ml of each PF4, βpep-14, βpep-16, or medium was added. Mean ICAM-1 fluorescence intensity values were determined.
Since the in vivo situation of tumor-associated EC involves the low expression or even absence of ICAM-1, the next set of experiments aimed to study the ability to re-induce ICAM-1 expression after bFBF preincubation. […] In these experiments, HUVEC were pretreated for 3 days with bFGF, subsequently PF4 was added for 3 days and, where indicated in the last 16 hours of culture 4 ng/ml TNF(X was added. Human umbilical vein derived endothelial cells (HUVEC) were harvested from normal human umbilical cords by perfusion with 0.125% trypsin/EDTA. Cells were cultured in fibronectin (FN) coated tissue culture flasks in culture medium (RPMI-1640 with 20% human serum (HS), supplemented with 2 mM glutamine and 100 U/ml penicillin and 0.1 mg/ml streptomycin). Immunofluorescence using indirect PE-conjugated reagents required three separate incubations. 1×10^5 EC were fixed for 1 hour in 1% paraformaldehyde, resuspended in 20 μl appropriately diluted Mab and incubated for 1 hour on ice. Subsequently, cells were washed two times in PBS/BSA (0.1%) and incubated for another 30 minutes with biotinylated rabbit-anti-mouse Ig (Dako, Glostrup, Denmark). After another 2 washings, cells were incubated with streptavidin-phycoerythrin conjugate (Dako). Stained cells were analyzed on a FACScan flowcytometer. Data analysis was performed using PCLysys software (Becton Dickinson, Mountain View, Calif.). Statistical significance of observed differences was determined using the Student's t-test.
The anergy of EC to stimulation with inflammatory cytokines was the subject of additional experiments. For these experiments, HUVEC (human vascular endothelial cells) were pretreated with 10 ng/ml bFGF for 3 days. Subsequently, cells are subcultured for 3 days with […] in the presence of PF4. For the last 16 hours of the culture 4 ng/ml TNF-α was added to induce upregulation of ICAM-1. […] The regulation of ICAM-1 at the protein level was confirmed in Northern blot analysis for detection of ICAM-1 message. In these experiments, HUVEC were cultured for 3 days with bFGF and treated for the last 4 and 24 hours with PF4 (100 μg/ml). TNF-α was added 2 hours before isolation of RNA. RNA from a subconfluent EC cultures (75 cm^2 Petri-dishes) incubated with bFGF for different time-points was isolated using an RNA-zol kit (Campro Scientific, Houston, Tex.). Total RNA (10 μg) for each sample was separated in a 0.8% formaldehyde-denaturing gel, transferred to nitrocellulose (Hybond N+, Amersham International, Amersham, UK) and hybridized to a ^32P-labelled 1.9 Kb c-DNA probe, containing the functional sequence of the human ICAM-1 gene (a gift from Dr. B. Seed). Membranes were washed at a high stringency in 0.2×SSC, 0.1% SDS at 50° C. for 1 hour. Filters were exposed to X-ray films (Kodak X-omat, Eastman Kodak Company, Rochester, N.Y.) using an intensifying screen at −80° C. for not less than 12 hours. Autoradiograms were subjected to scanning using a laser densitometer (Model GS670, Bio-Rad, Hercules, Calif.) and data were analysed with the Molecular Analyst PCTM software. The intensity of the major ICAM-1 mRNA transcript was normalized with respect to actin mRNA expression used as a control.

[2] = tested on: endothelial cell (FBHEC, HUVEC)
Description: β-sheet peptides βpep 1-24 were tested in an endothelial cell proliferation assay using ^3H-thymidine incorporation.

HUVEC = settings: PF4 100 μg/ml, bFGF 10 ng/ml
Description: Functional impact for the observed phenomena was provided by leukocyte/EC adhesion assays as described earlier (Griffloen et al. Cancer Res. 56, 1111-1117 (1996)). […] PHA-activated peripheral blood T lymphocyte were adhered for 1 hour at 37° C. to TNF-α (4 ng/ml), bFGF (10 ng/ml) and PF4 (100 μg/ml) treated, or control (HUVEC). Non-adhering cells were removed and adhered cells were enumerated by an inverted microscope. Values of one representative experiment out of three are expressed as numbers of adhered cells per high power field. Statistical significance is determined by the Student's t-test.

SCK tumors = assay: Radiosensitization test of SCK tumors, i.p. injections plus 10 Gy on days 0 and 1
Description: On days 0 and 1 the injections were given 2 hours prior to tumor irradiation (10 Gy each day) (Mauceri et al., Nature 394, 287-91 (1998)).
Tumor volume was determined by measuring the diameters of the tumor using metric-scale calipers (Scienceware; Pequannock, N.J.) and solving the equation to determine the volume of a spheroid: (a^2×b×Π)/6, where ‘a’ is the width and ‘b’ is the length of the tumor.
Growth delay was calculated by subtracting the average time for control tumors to grow three-fold in volume from the time required for treated tumors to increase in volume by 3-fold from the day of radiation.

[3] = second expt 2, 1 μg/ml, 10 ng/ml bFGF, medium 52808 ± 4092
[4] = second expt 2, 1 μg/ml, no bFGF, medium 6780 ± 713
[5] = second expt 2, 10 μg/ml, 10 ng/ml bFGF, medium 52808 ± 4092
[6] = second expt 2, 10 μg/ml, no bFGF, medium 6780 ± 713
[7] = second expt 2, 100 μg/ml, 10 ng/ml bFGF, medium 52808 ± 4092
[8] = second expt 2, 100 μg/ml, no bFGF, medium 6780 ± 713
[9] = first expt 2, 1 μg/ml, 10 ng/ml bFGF, medium 29079 ± 2506
[10] = first expt 2, 1 μg/ml, no bFGF, medium 14296 ± 2490
[11] = first expt 2, 10 μg/ml, 10 ng/ml bFGF, medium 29079 ± 2506
[12] = first expt 2, 10 μg/ml, no bFGF, medium 14296 ± 2490
[13] = first expt 2, 100 μg/ml, 10 ng/ml bFGF, medium 29079 ± 2506
[14] = first expt 2, 100 μg/ml, no bFGF, medium 14296 ± 2490

## O=C1CCC(N2C(=O)c3ccccc3C2=O)C(=O)N1 (stereo not shown) [thalidomide, reference compound]
EC
  EC growth in vitro: do not affect EC growth in vitro
[1]
  effect on ICAM-1 expression, other inhibitors of angiogenesis: did not affect ICAM-1 expression

## ANIKLSVEMKLFKRHLKWKIIVKLNDGRELSLD [βpep-8]
[2]
  cell proliferation activity (control of endothelial cell proliferation): little cell proliferation activity

## Platelet Factor 4 [PF4]
EC; expt 1, 1 μg/ml, 10 ng/ml bFGF, medium 28815 ± 1007
  EC proliferation, (3H)-thymidine incorporation: 28782 ± 815 cpm
EC; expt 1, 1 μg/ml, no bFGF, medium 4044 ± 206
  EC proliferation, (3H)-thymidine incorporation: 4656 ± 456 cpm
EC; expt 1, 10 μg/ml, 10 ng/ml bFGF, medium 28815 ± 1007
  EC proliferation, (3H)-thymidine incorporation: 23868 ± 402 cpm
EC; expt 1, 10 μg/ml, no bFGF, medium 4044 ± 206
  EC proliferation, (3H)-thymidine incorporation: 4066 ± 351 cpm
EC; expt 1, 100 μg/ml, 10 ng/ml bFGF, medium 28815 ± 1007
  EC proliferation, (3H)-thymidine incorporation: 4655 ± 421 cpm
EC; expt 1, 100 μg/ml, no bFGF, medium 4044 ± 206
  EC proliferation, (3H)-thymidine incorporation: 1651 ± 172 cpm
EC; [3]
  EC proliferation, (3H)-thymidine incorporation: 43524 ± 5318 cpm
EC; [4]
  EC proliferation, (3H)-thymidine incorporation: 6171 ± 1227 cpm
EC; [5]
  EC proliferation, (3H)-thymidine incorporation: 8337 ± 704 cpm
EC; [6]
  EC proliferation, (3H)-thymidine incorporation: 3547 ± 317 cpm
EC; [7]
  EC proliferation, (3H)-thymidine incorporation: 1654 ± 375 cpm
EC; [8]
  EC proliferation, (3H)-thymidine incorporation: 947 ± 170 cpm
[1]
  bFGF mediated downregulation of ICAM-1: did not result in the loss of ICAM-1 expression
[1]; 100 μg/ml alone
  expression of ICAM-1: enhanced the expression of ICAM-1
[1]; HUVEC pretreated 3 days with bFGF, then 100 μg/ml for 3 days in the presence of bFGF
  re-induction of ICAM-1 expression after bFGF preincubation: reinduction of ICAM-1
[1]; bFGF-pretreated HUVEC, 4 ng/ml TNF-α for the last 16 hours
  decreased inflammatory response (TNF-α induced ICAM-1) of angiogenic stimulated EC: overcome
HUVEC
  bFGF mediated inhibition of leukocyte adhesion to cultured HUVEC: completely abolished

## SIQDLNVSMKLFRKQAKWKIIAKLNDGRELSLD [βpep-16]
EC
  angiostatic as determined by EC proliferation in vitro: angiostatic
EC; [9]
  EC proliferation, (3H)-thymidine incorporation: 35447 ± 2621 cpm
EC; [10]
  EC proliferation, (3H)-thymidine incorporation: 15039 ± 2020 cpm
EC; [11]
  EC proliferation, (3H)-thymidine incorporation: 33663 ± 2572 cpm
EC; [12]
  EC proliferation, (3H)-thymidine incorporation: 11881 ± 2545 cpm
EC; [13]
  EC proliferation, (3H)-thymidine incorporation: 7852 ± 875 cpm
EC; [14]
  EC proliferation, (3H)-thymidine incorporation: 4929 ± 749 cpm
EC; [3]
  EC proliferation, (3H)-thymidine incorporation: 47727 ± 447 cpm
EC; [4]
  EC proliferation, (3H)-thymidine incorporation: 7450 ± 737 cpm
EC; [5]
  EC proliferation, (3H)-thymidine incorporation: 44919 ± 2081 cpm
EC; [6]
  EC proliferation, (3H)-thymidine incorporation: 6148 ± 1370 cpm
EC; [7]
  EC proliferation, (3H)-thymidine incorporation: 27071 ± 3277 cpm
EC; [8]
  EC proliferation, (3H)-thymidine incorporation: 2669 ± 370 cpm
[1]
  bFGF mediated downregulation of ICAM-1: complete block of bFGF-mediated downregulation

## SIQDLNVSMKLFRKQAKWKLIVKLNDGRELSLD [βpep-14]
EC
  angiostatic as determined by EC proliferation in vitro: angiostatic
EC; [9]
  EC proliferation, (3H)-thymidine incorporation: 28695 ± 1062 cpm
EC; [10]
  EC proliferation, (3H)-thymidine incorporation: 14184 ± 1775 cpm
EC; [11]
  EC proliferation, (3H)-thymidine incorporation: 29530 ± 1608 cpm
EC; [12]
  EC proliferation, (3H)-thymidine incorporation: 9886 ± 2114 cpm
EC; [13]
  EC proliferation, (3H)-thymidine incorporation: 6585 ± 132 cpm
EC; [14]
  EC proliferation, (3H)-thymidine incorporation: 3774 ± 299 cpm
EC; [3]
  EC proliferation, (3H)-thymidine incorporation: 48443 ± 2700 cpm
EC; [4]
  EC proliferation, (3H)-thymidine incorporation: 7214 ± 1668 cpm
EC; [5]
  EC proliferation, (3H)-thymidine incorporation: 52126 ± 1258 cpm
EC; [6]
  EC proliferation, (3H)-thymidine incorporation: 6074 ± 899 cpm
EC; [7]
  EC proliferation, (3H)-thymidine incorporation: 7663 ± 715 cpm
EC; [8]
  EC proliferation, (3H)-thymidine incorporation: 1062 ± 325 cpm
[1]
  bFGF mediated downregulation of ICAM-1: complete block of bFGF-mediated downregulation

## SIQFLKVSLNLDRKQAKWKIIVKLNDGRELSLD [βpep-24]
[2]
  cell proliferation activity (control of endothelial cell proliferation): very good at controlling cell proliferation

## angiostatin
SCK tumors; angiostatin 25 or 50 mg/kg i.p. combined with 10 Gy days 0 and 1
  complete responses: nor did it induce any complete responses
SCK tumors; angiostatin 25 or 50 mg/kg i.p. days -1, 0, 1 combined with 10 Gy days 0 and 1
  delay in tumor growth: did not result in any significant delay in tumor growth

## interferon-γ inducible protein-10 [IP-10]
EC; expt 3, 100 μg/ml, 10 ng/ml bFGF, medium 3432 ± 232
  EC proliferation, (3H)-thymidine incorporation: 725 ± 95 cpm
[1]
  effect on ICAM-1 expression, other inhibitors of angiogenesis: the same results

## thrombospondin-1 [TSP-1]
EC; expt 4, 10 μg/ml, 10 ng/ml bFGF, medium 31954 ± 1220
  EC proliferation, (3H)-thymidine incorporation: 22338 ± 860 cpm
EC; expt 4, 10 μg/ml, no bFGF, medium 18904 ± 1501
  EC proliferation, (3H)-thymidine incorporation: 8865 ± 639 cpm
EC; expt 4, 25 μg/ml, 10 ng/ml bFGF, medium 31954 ± 1220
  EC proliferation, (3H)-thymidine incorporation: 10267 ± 797 cpm
EC; expt 4, 25 μg/ml, no bFGF, medium 18904 ± 1501
  EC proliferation, (3H)-thymidine incorporation: 5565 ± 349 cpm
[1]
  effect on ICAM-1 expression, other inhibitors of angiogenesis: the same results
